This is an account of results in patent publication US9493411B2 (AbbVie Inc., priority 2013, dated 2016).

The target of one assay is T1, BRD4 (BDII_E352-M457) (Homo sapiens, UniProt O60885).
T1 construct: made in house
As to the kind of experiment: TR-FRET bromodomain binding assay, BRD4 second bromodomain. The conditions noted are these: His-tagged BD2, Alexa647-labeled probe 30 nM; Ki calculated from IC50. As to the method: (§1) A time-resolved fluorescence resonance energy transfer (TR-FRET) assay was used to determine the affinities of compounds of the Examples listed in Table 1 for each bromodomain of BRD4. His-tagged first (BD1: amino acids K57-E168) and second (BD2: amino acids E352-E168) bromodomains of BRD4 were expressed and purified. An Alexa647-labeled BET-inhibitor was used as the fluorescent probe in the assay.
(§2) Compound dilution series were prepared in DMSO via a 3-fold serial dilution from 2.5 mM to 42 nM. Compounds were then diluted 6:100 in assay buffer (20 mM Sodium Phosphate, pH 6.0, 50 mM NaCl, 1 mM Ethylenediaminetetraacetic acid disodium salt dihydrate, 0.01% Triton X-100, 1 mM DL-Dithiothreitol) to yield 3× working solutions. Six microliters (μL) of the working solution was then transferred to white, low-volume assay plates (Costar #3673). A 1.5× assay mixture containing His-tagged bromodomain, Europium-conjugated anti-His antibody (Invitrogen PV5596) and the Alexa-647-conjugated probe molecule was also prepared. Twelve μL of this solution were added to the assay plate to reach a final volume of 18 μL. The final concentration of 1× assay buffer contains 2% DMSO, 50 μM-0.85 nM compound, 8 nM His-tagged bromodomain, 1 nM Europium-conjugated anti-His-tag antibody and 100 nM or 30 nM probe (for BDI or BDII, respectively). After a one-hour incubation at room temperature, TR-FRET ratios were determined using an Envision multilabel plate reader (Ex 340, Em […]).
(§3) TR-FRET data were normalized to the means of 24 no-compound controls (“high”) and 8 controls containing 1 μM un-labeled probe (“low”). Percent inhibition was plotted as a function of compound concentration and the data were fit with the 4 parameter logistic equation to obtain IC50s. Inhibition constants (Ki) were calculated from the IC50s, probe Kd and probe concentration. Typical Z′ values were between 0.65 and 0.75. The minimum significant ratio was determined to evaluate assay reproducibility (Eastwood et al., (2006) J Biomol Screen, 11: 253-261). The MSR was determined to be 2.03 for BDI and 1.93 for BDII, and a moving MSR (last six run MSR overtime) for both BDI and BDII was typically <3.

The target of another assay is T2, BRD4 (BDI_K57-E168) (Homo sapiens, UniProt O60885).
T2 construct: BD1: amino acids K57-E168; made in house
As to the kind of experiment: TR-FRET bromodomain binding assay, BRD4 first bromodomain. The conditions noted are these: His-tagged BD1, Alexa647-labeled probe 100 nM; Ki calculated from IC50. As for the experimental part:
as §1, §2, §3

As for `Cc1[nH]c(-c2ccc(NS(C)(=O)=O)cc2)cc1C(N)=O` [Example 9, 2-methyl-5-{4-[(methylsulfonyl)amino]phenyl}-1H-pyrrole-3-carboxamide], the figures for the inhibition constant Ki at BRD4 (BDII_E352-M457) and on BRD4 (BDI_K57-E168) were 3.14 µM and 2.88 µM, respectively.
As for `Cc1noc(C)c1-c1ccc(-c2cc(C(N)=O)c(C)[nH]2)cc1` [Example 92, 5-[4-(3,5-dimethyl-1,2-oxazol-4-yl)phenyl]-2-methyl-1H-pyrrole-3-carboxamide], the inhibition constant Ki on BRD4 (BDII_E352-M457) is 2.43 µM; at BRD4 (BDI_K57-E168), 1.69 µM.
Regarding `Cc1[nH]c(-c2ccc(-c3cccc(N4CCOCC4)c3)cc2)cc1C(N)=O` [Example 105, 2-methyl-5-[3′-(morpholin-4-yl)biphenyl-4-yl]-1H-pyrrole-3-carboxamide], the inhibition constant Ki was 5.34 µM at BRD4 (BDII_E352-M457) and 6.78 µM at BRD4 (BDI_K57-E168).
As for `COC(=O)CNC(=O)c1cc(-c2ccc(-c3c(C)noc3C)cc2)[nH]c1C` [Example 94, methyl N-({5-[4-(3,5-dimethyl-1,2-oxazol-4-yl)phenyl]-2-methyl-1H-pyrrol-3-yl}carbonyl)glycinate], the Ki was 21.5 µM on BRD4 (BDII_E352-M457) and 4.82 µM on BRD4 (BDI_K57-E168).
Take `Cc1[nH]c(-c2ccc(-c3cncnc3)cc2)cc1C(N)=O` [Example 109, 2-methyl-5-[4-(pyrimidin-5-yl)phenyl]-1H-pyrrole-3-carboxamide]: the Ki is 4.42 µM at BRD4 (BDII_E352-M457) and 9.24 µM at BRD4 (BDI_K57-E168).
Taken in the same sequence, the figures for `CCc1ccc(Oc2ccccc2-c2cc(C(N)=O)c(C)[nH]2)cc1` [Example 143, 5-[2-(4-ethylphenoxy)phenyl]-2-methyl-1H-pyrrole-3-carboxamide] were 2.11 µM and 0.259 µM.
Turning to `CC(=O)Nc1ccc(-c2cc(C(N)=O)c(C)[nH]2)cc1` [Example 10, 5-[4-(acetylamino)phenyl]-2-methyl-1H-pyrrole-3-carboxamide], the figures for the Ki on BRD4 (BDII_E352-M457) and on BRD4 (BDI_K57-E168) were 5.57 µM and 3.47 µM, respectively.
Turning to `Cc1[nH]c(-c2ccccc2NCc2ccc(N)cc2)cc1C(N)=O` [Example 52, 5-{2-[(4-aminobenzyl)amino]phenyl}-2-methyl-1H-pyrrole-3-carboxamide], the results for the Ki at BRD4 (BDII_E352-M457) and at BRD4 (BDI_K57-E168) were 16.4 µM and 3.08 µM, respectively.
As to `Cc1[nH]c(-c2cccc(-c3ccccc3)c2)cc1C(N)=O` [Example 150, 5-(biphenyl-3-yl)-2-methyl-1H-pyrrole-3-carboxamide], the Ki at BRD4 (BDII_E352-M457) was 9.69 µM; on BRD4 (BDI_K57-E168), 10.7 µM.
`Cc1[nH]c(-c2ccccc2NCc2ccc(Br)cc2)cc1C(N)=O` [Example 32, 5-{2-[(4-bromobenzyl)amino]phenyl}-2-methyl-1H-pyrrole-3-carboxamide]: the figures for the inhibition constant Ki at BRD4 (BDII_E352-M457) and on BRD4 (BDI_K57-E168) were 10.3 µM and 5.17 µM, respectively.
Taken in the same sequence, the figures for `Cc1[nH]c(-c2ccccc2NCc2c(F)cccc2F)cc1C(N)=O` [Example 22, 5-{2-[(2,6-difluorobenzyl)amino]phenyl}-2-methyl-1H-pyrrole-3-carboxamide] were 3.66 µM and 2.98 µM.
With `Cc1[nH]c(-c2cccc(-c3ccsc3)c2)cc1C(N)=O` [Example 152, 2-methyl-5-[3-(thiophen-3-yl)phenyl]-1H-pyrrole-3-carboxamide], the Ki at BRD4 (BDII_E352-M457) was 7.87 µM; at BRD4 (BDI_K57-E168) it was 4.7 µM.
In the case of `Cc1[nH]c(-c2ccc(-c3cnn(C)c3)cc2)cc1C(N)=O` [Example 103, 2-methyl-5-[4-(1-methyl-1H-pyrazol-4-yl)phenyl]-1H-pyrrole-3-carboxamide], the results for the Ki at BRD4 (BDII_E352-M457) and at BRD4 (BDI_K57-E168) were 3.48 µM and 4.66 µM, respectively.
Consider `Cc1[nH]c(-c2ccccc2Oc2cccc3ccccc23)cc1C(N)=O` [Example 140, 2-methyl-5-[2-(naphthalen-1-yloxy)phenyl]-1H-pyrrole-3-carboxamide], for which the inhibition constant Ki was 1.3 µM on BRD4 (BDII_E352-M457) and 0.607 µM on BRD4 (BDI_K57-E168).
For the compound `Cc1[nH]c(-c2cccc3cc[nH]c23)cc1C(N)=O` [Example 164, 5-(1H-indol-7-yl)-2-methyl-1H-pyrrole-3-carboxamide], the Ki is 2.03 µM at BRD4 (BDII_E352-M457) and 1 µM at BRD4 (BDI_K57-E168).
For `CC(=O)Nc1ccc(CN(CC2CCCC2)c2ccccc2-c2cc(C(N)=O)c(C)[nH]2)cc1` [Example 59, 5-(2-{[4-(acetylamino)benzyl](cyclopentylmethyl)amino}phenyl)-2-methyl-1H-pyrrole-3-carboxamide], the Ki on BRD4 (BDII_E352-M457) was 3.31 µM; at BRD4 (BDI_K57-E168), 2.13 µM.
As to `COc1cc(-c2ccc(-c3cc(C(N)=O)c(C)[nH]3)cc2)cc(OC)c1OC` [Example 99, 2-methyl-5-(3′,4′,5′-trimethoxybiphenyl-4-yl)-1H-pyrrole-3-carboxamide], the inhibition constant Ki was 2.32 µM on BRD4 (BDII_E352-M457) and 2.3 µM on BRD4 (BDI_K57-E168).
As for `Cc1[nH]c(-c2ccccc2NC2Cc3ccccc3C2)cc1C(N)=O` [Example 69, 5-[2-(2,3-dihydro-1H-inden-2-ylamino)phenyl]-2-methyl-1H-pyrrole-3-carboxamide], the Ki at BRD4 (BDII_E352-M457) is 2.34 µM; on BRD4 (BDI_K57-E168), 0.663 µM.
Take `Cc1[nH]c(-c2ccc(-c3ccsc3)cc2)cc1C(N)=O` [Example 101, 2-methyl-5-[4-(thiophen-3-yl)phenyl]-1H-pyrrole-3-carboxamide]: the Ki is 5.33 µM on BRD4 (BDII_E352-M457) and 7.37 µM on BRD4 (BDI_K57-E168).
In the case of `Cc1[nH]c(-c2ccccc2NCc2ccc(C#N)cc2)cc1C(N)=O` [Example 31, 5-{2-[(4-cyanobenzyl)amino]phenyl}-2-methyl-1H-pyrrole-3-carboxamide], the Ki at BRD4 (BDII_E352-M457) was 6.23 µM; at BRD4 (BDI_K57-E168), 1.4 µM.
For the compound `Cc1[nH]c(-c2ccccc2NC2CCCCCC2)cc1C(N)=O` [Example 73, 5-[2-(cycloheptylamino)phenyl]-2-methyl-1H-pyrrole-3-carboxamide], the Ki on BRD4 (BDII_E352-M457) was 3.83 µM; at BRD4 (BDI_K57-E168), 0.862 µM.
In the same order, the values of `Cc1[nH]c(-c2ccccc2Oc2ccc(C3CCCC3)cc2)cc1C(N)=O` [Example 124, 5-[2-(4-cyclopentylphenoxy)phenyl]-2-methyl-1H-pyrrole-3-carboxamide] are 13.1 µM and 4.6 µM.
For `COc1cc(CNc2ccccc2-c2cc(C(N)=O)c(C)[nH]2)cc(OC)c1OC` [Example 16, 2-methyl-5-{2-[(3,4,5-trimethoxybenzyl)amino]phenyl}-1H-pyrrole-3-carboxamide], the Ki is 2.02 µM on BRD4 (BDII_E352-M457) and 1.18 µM at BRD4 (BDI_K57-E168).
`Cc1[nH]c(-c2ccccc2NCc2cc(Br)cs2)cc1C(N)=O` [Example 15, 5-(2-{[(4-bromothiophen-2-yl)methyl]amino}phenyl)-2-methyl-1H-pyrrole-3-carboxamide]: the Ki is 2.31 µM at BRD4 (BDII_E352-M457) and 2.58 µM at BRD4 (BDI_K57-E168).
As for `Cc1[nH]c(-c2cccc(NS(C)(=O)=O)c2)cc1C(N)=O` [Example 6, 2-methyl-5-{3-[(methylsulfonyl)amino]phenyl}-1H-pyrrole-3-carboxamide], the Ki at BRD4 (BDII_E352-M457) is 5.01 µM; at BRD4 (BDI_K57-E168), 3.16 µM.
Regarding `Cc1[nH]c(-c2ccc(N)cc2)cc1C(N)=O` [Example 8, 5-(4-aminophenyl)-2-methyl-1H-pyrrole-3-carboxamide], the inhibition constant (Ki) was 3.72 µM on BRD4 (BDII_E352-M457) and 2.68 µM on BRD4 (BDI_K57-E168).
Regarding `Cc1[nH]c(-c2ccccc2NCc2ccc(Cl)cc2)cc1C(N)=O` [Example 11, 5-{2-[(4-chlorobenzyl)amino]phenyl}-2-methyl-1H-pyrrole-3-carboxamide], the Ki is 2.51 µM at BRD4 (BDII_E352-M457) and 2.87 µM at BRD4 (BDI_K57-E168).
With `Cc1[nH]c(-c2ccccc2NCc2cc(Cl)cc(Cl)c2)cc1C(N)=O` [Example 39, 5-{2-[(3,5-dichlorobenzyl)amino]phenyl}-2-methyl-1H-pyrrole-3-carboxamide], the Ki on BRD4 (BDII_E352-M457) is 4.98 µM; on BRD4 (BDI_K57-E168), 3.82 µM.
Take `Cc1[nH]c(-c2ccccc2Oc2ccccc2Cc2ccccc2)cc1C(N)=O` [Example 138, 5-[2-(2-benzylphenoxy)phenyl]-2-methyl-1H-pyrrole-3-carboxamide]: the inhibition constant Ki was 1.82 µM on BRD4 (BDII_E352-M457) and 1.48 µM at BRD4 (BDI_K57-E168).
Consider `Cc1[nH]c(-c2ccc(-c3ccoc3)cc2)cc1C(N)=O` [Example 100, 5-[4-(furan-3-yl)phenyl]-2-methyl-1H-pyrrole-3-carboxamide], for which the Ki at BRD4 (BDII_E352-M457) was 5.32 µM; at BRD4 (BDI_K57-E168), 8.36 µM.
In the same order, the values of `COc1ccc(CNc2ccccc2-c2cc(C(N)=O)c(C)[nH]2)cc1` [Example 30, 5-{2-[(4-methoxybenzyl)amino]phenyl}-2-methyl-1H-pyrrole-3-carboxamide] are 3.48 µM and 3.06 µM.
`Cc1[nH]c(-c2ccccc2N)cc1C(N)=O` [Example 1, 5-(2-aminophenyl)-2-methyl-1H-pyrrole-3-carboxamide]: the Ki at BRD4 (BDII_E352-M457) is 6.21 µM; at BRD4 (BDI_K57-E168), 2.54 µM.
